Usually IC50 stands for the concentration that gives 50% inhibition. Low readings indicate greater potency in that assay, high ones weaker potency in that assay.

Where only a bound is given, the exact number is not on record here.

The target of the experiment is T1, purified human HDAC6 (Homo sapiens, UniProt Q9UBN7).
T1 construct: purchased BPS Bioscience 5006
T1 sequence (Q9UBN7 1-1215): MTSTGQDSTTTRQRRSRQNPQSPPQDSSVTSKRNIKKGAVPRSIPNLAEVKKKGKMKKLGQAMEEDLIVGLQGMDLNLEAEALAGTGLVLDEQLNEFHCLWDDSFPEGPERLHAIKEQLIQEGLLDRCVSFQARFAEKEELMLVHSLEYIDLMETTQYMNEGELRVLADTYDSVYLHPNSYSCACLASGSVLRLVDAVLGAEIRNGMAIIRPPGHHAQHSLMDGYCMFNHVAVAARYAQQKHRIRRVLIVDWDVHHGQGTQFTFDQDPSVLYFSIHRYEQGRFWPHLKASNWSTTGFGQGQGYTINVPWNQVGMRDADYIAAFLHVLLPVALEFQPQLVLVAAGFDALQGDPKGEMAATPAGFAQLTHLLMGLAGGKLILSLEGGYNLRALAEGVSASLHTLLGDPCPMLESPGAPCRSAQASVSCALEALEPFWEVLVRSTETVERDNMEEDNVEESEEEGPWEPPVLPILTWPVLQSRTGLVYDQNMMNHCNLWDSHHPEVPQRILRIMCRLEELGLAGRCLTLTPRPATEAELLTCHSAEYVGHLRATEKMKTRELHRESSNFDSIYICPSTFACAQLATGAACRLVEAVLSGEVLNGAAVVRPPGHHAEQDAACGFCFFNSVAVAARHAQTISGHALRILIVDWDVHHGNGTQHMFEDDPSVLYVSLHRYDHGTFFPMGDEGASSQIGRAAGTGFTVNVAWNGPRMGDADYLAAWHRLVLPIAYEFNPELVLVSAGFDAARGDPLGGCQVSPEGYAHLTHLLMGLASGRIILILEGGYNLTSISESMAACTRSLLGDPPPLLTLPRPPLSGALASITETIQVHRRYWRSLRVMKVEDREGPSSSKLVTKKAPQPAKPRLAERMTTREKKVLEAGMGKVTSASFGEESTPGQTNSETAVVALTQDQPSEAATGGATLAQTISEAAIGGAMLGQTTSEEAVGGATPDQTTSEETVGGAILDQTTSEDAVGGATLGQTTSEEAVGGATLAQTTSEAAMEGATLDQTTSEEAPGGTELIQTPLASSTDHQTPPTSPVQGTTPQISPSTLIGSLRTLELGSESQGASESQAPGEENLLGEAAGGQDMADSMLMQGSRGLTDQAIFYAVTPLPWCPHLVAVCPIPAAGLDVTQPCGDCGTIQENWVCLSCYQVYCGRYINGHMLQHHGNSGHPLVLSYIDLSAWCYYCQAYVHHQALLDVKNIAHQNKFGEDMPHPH
The experiment is described as follows: HDAC6 enzyme assay. It counts as biochemical. Here is the method:
To measure the inhibition of HDAC6 activity, purified human HDAC6 (BPS Bioscience; Cat. No. 5006) is incubated with substrate Ac-Arg-Gly-Lys(Ac)-AMC peptide (Bachem Biosciences; Cat. No. I-1925) for 1 hour at 30° C. in the presence of test compounds or vehicle DMSO control. The reaction is stopped with the HDAC inhibitor trichostatin A (Sigma; Cat. No. T8552) and the amount of Arg-Gly-Lys-AMC generated is quantitated by digestion with trypsin (Sigma; Cat. No. T1426) and subsequent measurement of the amount of AMC released using a fluorescent plate reader (Pherastar; BMG Technologies) set at Ex 340 nm and Em 460 nm. Concentration response curves are generated by calculating the fluorescence increase in test compound-treated samples relative to DMSO-treated controls, and enzyme inhibition (IC50) values are determined from those curves.

Setting [1] is: bins: greater than 1 μM and less than 10 μM, greater than 10 μM.

`Cc1ccc2[nH]c(C(=O)N3CCn4cc(C(=O)NO)cc4C3)c(C)c2c1` [Compound I-28, 2-[(3,5-dimethyl-1H-indol-2-yl)carbonyl]-N-hydroxy-1,2,3,4-tetrahydropyrrolo[1,2-a]pyrazine-7-carboxamide] returned an IC50 (bin: less than 100 nM) of less than 0.1 µM. Under setting [1], `Cc1ccc(-c2ccc(C(=O)N3CCCn4cc(C(=O)NO)cc4C3)cc2)cc1` [Compound I-80, N-hydroxy-2-[(4′-methylbiphenyl-4-yl)carbonyl]-2,3,4,5-tetrahydro-1H-pyrrolo[1,2-a][1,4]diazepine-8-carboxamide] registered an IC50 of 1 to 10 µM.

Under setting [1], `O=C(NO)c1cc2n(c1)CCCN(C(=O)C1CCCC1)C2` [Compound I-19, 2-(cyclopentylcarbonyl)-N-hydroxy-2,3,4,5-tetrahydro-1H-pyrrolo[1,2-a][1,4]diazepine-8-carboxamide] returned a 50% inhibitory concentration (IC50) of more than 10 µM. Same read-out and setting: the same measure for `O=C(NO)c1cc2n(c1)CCCN(C(=O)c1c(Cl)cccc1Cl)C2` [Compound I-79, 2-(2,6-dichlorobenzoyl)-N-hydroxy-2,3,4,5-tetrahydro-1H-pyrrolo[1,2-a][1,4]diazepine-8-carboxamide]: 1 to 10 µM; for `Cc1nc(C(=O)N2CCn3cc(C(=O)NO)nc3C2)cs1` [Compound I-55, N-hydroxy-7-[(2-methyl-1,3-thiazol-4-yl)carbonyl]-5,6,7,8-tetrahydroimidazo[1,2-a]pyrazine-2-carboxamide]: 1 to 10 µM; for `CC(=O)c1c(C)[nH]c(C(=O)N2CCn3cc(C(=O)NO)cc3C2)c1C` [Compound I-15, 2-[(4-acetyl-3,5-dimethyl-1H-pyrrol-2-yl)carbonyl]-N-hydroxy-1,2,3,4-tetrahydropyrrolo[1,2-a]pyrazine-7-carboxamide]: 1 to 10 µM.

In the case of `Cc1cc(C(=O)N2CCn3cc(C(=O)NO)cc3C2)c(C)[nH]1` [Compound I-94, 2-[(2,5-dimethyl-1H-pyrrol-3-yl)carbonyl]-N-hydroxy-1,2,3,4-tetrahydropyrrolo[1,2-a]pyrazine-7-carboxamide], the half-maximal inhibitory concentration (IC50) (bin: less than 100 nM) is less than 0.1 µM. Under setting [1], `Cc1oc(-c2ccccc2)nc1CC(=O)N1CCn2cc(C(=O)NO)cc2C1` [Compound I-82, N-hydroxy-2-[(5-methyl-2-phenyl-1,3-oxazol-4-yl)acetyl]-1,2,3,4-tetrahydropyrrolo[1,2-a]pyrazine-7-carboxamide] displayed an IC50 of more than 10 µM. Take `CC(C)(C)c1ccc(C(=O)N2CCCn3cc(C(=O)NO)cc3C2)cc1` [Compound I-18, 2-(4-tert-butylbenzoyl)-N-hydroxy-2,3,4,5-tetrahydro-1H-pyrrolo[1,2-a][1,4]diazepine-8-carboxamide]: under setting [1], the 50% inhibitory concentration (IC50) is 1 to 10 µM.

Molecule `CCOCCN1CCn2nc(C(=O)NO)cc2C1=O` [Compound I-88, 5-(2-ethoxyethyl)-N-hydroxy-4-oxo-4,5,6,7-tetrahydropyrazolo[1,5-a]pyrazine-2-carboxamide] came in with an IC50 under setting [1] of 1 to 10 µM. On the same count and under the same terms, the same measure for `CC(C)CCN1CCn2nc(C(=O)NO)cc2C1=O` [Compound I-77, N-hydroxy-5-(3-methylbutyl)-4-oxo-4,5,6,7-tetrahydropyrazolo[1,5-a]pyrazine-2-carboxamide]: 1 to 10 µM; for `Cc1nc(C(=O)N2CCn3cc(C(=O)NO)cc3C2)cs1` [Compound I-73, N-hydroxy-2-[(2-methyl-1,3-thiazol-4-yl)carbonyl]-1,2,3,4-tetrahydropyrrolo[1,2-a]pyrazine-7-carboxamide]: more than 10 µM. Regarding `O=C(NO)c1cc2n(c1)CCN(C(=O)c1c[nH]c3ccccc13)C2` [Compound I-75, N-hydroxy-2-(1H-indol-3-ylcarbonyl)-1,2,3,4-tetrahydropyrrolo[1,2-a]pyrazine-7-carboxamide], the IC50 (bin: less than 100 nM) was less than 0.1 µM. `Cc1c(C(=O)N2CCCn3nc(C(=O)NO)cc3C2)oc2ccccc12` [Compound I-108, N-hydroxy-5-[(3-methyl-1-benzofuran-2-yl)carbonyl]-5,6,7,8-tetrahydro-4H-pyrazolo[1,5-a][1,4]diazepine-2-carboxamide] had an IC50 under setting [1] of 1 to 10 µM. The molecule `O=C(NO)c1cc2n(n1)CCCN(C(=O)c1cc3ccccc3s1)C2` [Compound I-98, 5-(1-benzothien-2-ylcarbonyl)-N-hydroxy-5,6,7,8-tetrahydro-4H-pyrazolo[1,5-a][1,4]diazepine-2-carboxamide] came in with an IC50 under setting [1] of 1 to 10 µM. The same measure, in the same setting: the same measure for `CC(C)(C)CC(=O)N1CCCn2cc(C(=O)NO)cc2C1` [Compound I-59, 2-(3,3-dimethylbutanoyl)-N-hydroxy-2,3,4,5-tetrahydro-1H-pyrrolo[1,2-a][1,4]diazepine-8-carboxamide]: 1 to 10 µM.

Take `CS(=O)(=O)c1cccc(C(=O)N2CCn3cc(C(=O)NO)cc3C2)c1` [Compound I-54, N-hydroxy-2-[3-(methylsulfonyl)benzoyl]-1,2,3,4-tetrahydropyrrolo[1,2-a]pyrazine-7-carboxamide]: the IC50 under setting [1] was more than 10 µM. Same read-out and setting: the value for `O=C(NO)c1cc2n(n1)CCN(C(=O)CCc1ccccc1)C2` [Compound I-106, N-hydroxy-5-(3-phenylpropanoyl)-4,5,6,7-tetrahydropyrazolo[1,5-a]pyrazine-2-carboxamide] was 1 to 10 µM. `O=C(NO)c1cc2n(c1)CCN(Cc1ccc(C(F)(F)F)cc1)C2=O` [Compound I-240, N-hydroxy-1-oxo-2-[4-(trifluoromethl)benzyl]-1,2,3,4-tetrahydropyrrolo[1,2-a]pyrazine-7-carboxamide] registered an IC50 (bin: less than 100 nM) of less than 0.1 µM. Under setting [1], `O=C(NO)c1cc2n(n1)CCN(CC1CC1)C2=O` [Compound I-83, 5-(cyclopropylmethyl)-N-hydroxy-4-oxo-4,5,6,7-tetrahydropyrazolo[1,5-a]pyrazine-2-carboxamide] came in with an IC50 of 1 to 10 µM. On the same count and under the same terms, the same measure for `O=C(NO)c1cn2c(n1)CN(C(=O)NCc1ccccc1)CC2` [Compound I-123, N7-benzyl-N2-hydroxy-5,6-dihydroimidazo[1,2-a]pyrazine-2,7(8H)-dicarboxamide]: 1 to 10 µM; for `CCC(C)NC(=O)N1CCn2cc(C(=O)NO)nc2C1` (stereo not shown) [Compound I-118, N7-(sec-butyl)-N2-hydroxy-5,6-dihydroimidazo[1,2-a]pyrazine-2,7(8H)-dicarboxamide]: 1 to 10 µM. Still for that read-out and setting: the same measure for `O=C(NO)c1cc2n(c1)CCCN(C(=O)c1csc3ccccc13)C2` [Compound I-96, 2-(1-benzothien-3-ylcarbonyl)-N-hydroxy-2,3,4,5-tetrahydro-1H-pyrrolo[1,2-a][1,4]diazepine-8-carboxamide]: 1 to 10 µM; for `COc1ccc(C(=O)N2CCCn3nc(C(=O)NO)cc3C2)cc1` [Compound I-53, N-hydroxy-5-(4-methoxybenzoyl)-5,6,7,8-tetrahydro-4H-pyrazolo[1,5-a][1,4]diazepine-2-carboxamide]: more than 10 µM. On to `Cc1cc(C(=O)N2CCn3cc(C(=O)NO)cc3C2)c(C)n1Cc1cccs1` [Compound I-35, 2-{[2,5-dimethyl-1-(2-thienylmethyl)-1H-pyrrol-3-yl]carbonyl}-N-hydroxy-1,2,3,4-tetrahydropyrrolo[1,2-a]pyrazine-7-carboxamide], for which the IC50 (bin: less than 100 nM) is less than 0.1 µM.

Under setting [1], `Cn1c(C(=O)N2CCCn3nc(C(=O)NO)cc3C2)cc2ccccc21` [Compound I-105, N-hydroxy-5-[(1-methyl-1H-indol-2-yl)carbonyl]-5,6,7,8-tetrahydro-4H-pyrazolo[1,5-a][1,4]diazepine-2-carboxamide] had an IC50 of 1 to 10 µM. Where the note is “bin: less than 100 nM”, `Cn1cccc1C(=O)N1CCn2cc(C(=O)NO)cc2C1` [Compound I-32, N-hydroxy-2-[(1-methyl-1H-pyrrol-2-yl)carbonyl]-1,2,3,4-tetrahydropyrrolo[1,2-a]pyrazine-7-carboxamide] had a 50% inhibitory concentration (IC50) of less than 0.1 µM. On to `CCc1cccc(CC)c1NC(=O)N1CCn2cc(C(=O)NO)nc2C1` [Compound I-115, N7-(2,6-diethylphenyl)-N2-hydroxy-5,6-dihydroimidazo[1,2-a]pyrazine-2,7(8H)-dicarboxamide], for which the IC50 under setting [1] was 1 to 10 µM.
